In general, pA2 refers to the negative logarithm of the molar antagonist concentration that doubles the agonist concentration needed for the same response. As a reminder, the IC50 is the midpoint of a concentration-inhibition curve. Read a low IC50 as greater potency in that assay.

For test [1], the target named is T1, 5-HT1A receptor (Cavia porcellus, UniProt A0A286Y074).
T1 construct: guinea-pig ileum in vitro; from tissue; host or cells: guinea-pig ileum
T1 sequence (A0A286Y074 1-421): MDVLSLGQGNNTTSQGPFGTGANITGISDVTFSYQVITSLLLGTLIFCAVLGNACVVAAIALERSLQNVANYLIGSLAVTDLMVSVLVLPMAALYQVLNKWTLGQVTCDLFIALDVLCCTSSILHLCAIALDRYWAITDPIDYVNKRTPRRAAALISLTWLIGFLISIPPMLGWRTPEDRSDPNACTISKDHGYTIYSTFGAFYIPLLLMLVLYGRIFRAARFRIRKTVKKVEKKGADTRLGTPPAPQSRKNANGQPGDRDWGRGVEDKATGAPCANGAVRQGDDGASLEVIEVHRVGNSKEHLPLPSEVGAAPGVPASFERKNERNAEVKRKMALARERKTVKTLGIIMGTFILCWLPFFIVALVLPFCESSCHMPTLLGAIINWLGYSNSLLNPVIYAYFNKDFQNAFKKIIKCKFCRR
Put plainly: 5-HT1A receptor antagonism: antagonism of 5-carboxamidotryptamine in the guinea-pig ileum in vitro. Here is the method:
The compounds are tested for 5-HT1A receptor antagonism activity in a test involving the antagonism of 5-carboxamidotryptamine in the guinea-pig ileum in vitro (based upon the procedure of Fozard et al, Br J Pharmac, 1985, 86, 601 P).

Test [2] deals with α1 site. Put plainly: affinity for the α1 site. It is filed as binding. To be noted: procedure of A. L. Marrow et al.
In test [3] the target is T2, 5-HT1A receptor (Rattus norvegicus, UniProt P19327).
T2 construct: rat hippocampal membrane homogenate; from tissue; host or cells: rat hippocampal membrane homogenate
T2 sequence (P19327 1-422): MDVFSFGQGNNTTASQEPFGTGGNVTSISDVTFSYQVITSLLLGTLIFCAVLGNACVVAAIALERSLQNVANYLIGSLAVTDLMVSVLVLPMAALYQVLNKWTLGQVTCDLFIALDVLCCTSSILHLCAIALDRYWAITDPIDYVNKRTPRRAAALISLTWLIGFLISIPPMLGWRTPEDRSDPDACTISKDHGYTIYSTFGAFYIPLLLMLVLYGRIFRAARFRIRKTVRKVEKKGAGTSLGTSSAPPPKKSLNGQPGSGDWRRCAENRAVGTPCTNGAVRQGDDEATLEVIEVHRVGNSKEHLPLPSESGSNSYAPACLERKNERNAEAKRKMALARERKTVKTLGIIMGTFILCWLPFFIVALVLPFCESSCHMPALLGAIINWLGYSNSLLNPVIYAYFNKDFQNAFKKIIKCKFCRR
Put plainly: 5-HT1A receptor binding activity in rat hippocampal membrane homogenate. To be noted: method of Alexander and Wood. The procedure:
The compounds of the invention are tested for 5-HT1A receptor binding activity in rat hippocampal membrane homogenate by the method of B. S. Alexander and M. D. Wood, J Pharm Pharmacol. 1988, 40, 888-891.

`COc1ccccc1C1CCN([C@H](C)CN(C(=O)C2CCCCC2)c2ccccn2)CC1` [Example 1, (R)-N-(2-(1-(4-(2-Methoxyphenyl)piperidinyl))propyl)-N-(2-pyridyl)cyclohexanecarboxamide]: in test [1], the pA2 was 7.9. The IC50 in test [2] is 858 nM; in test [3], 3.5 nM.
